Counter-ions that a name gives are not always drawn.
Assays:
[1] = tested on: human acute myeloid leukemia cell MV4-11; assay: Anti-proliferative effect in human acute myeloid leukemia cell MV4-11 (CellTiter-Glo); format: cell-based; conditions: MV4-11, 96 h, cell proliferation, incubated for 4 days
Description: In this assay, the inhibitory effect of assay compounds on cell proliferation in human acute myeloid leukemia cell MV4-11 was detected by ATP fluorescence activity detection (CellTiter-Glo).
(§1) (1) Promega CellTiter-Glo luminescent cell viability assay kit (Promega-G7573). (2) 2104 EnVision® plate reader, PerkinElmer.
(§2) The tumor cell line was cultured in a 37° C., 5% CO2 incubator according to the above-mentioned culture conditions. Cells were passaged periodically, and cells in logarithmic growth phase were used for plating.
(1). Cells were stained with trypan blue and viable cells were counted; (2). The cell concentration was adjusted to an appropriate concentration; (3). 90 μL of cell suspension was added to each well of the culture plate, and each well contained 6000 cells. In the blank group and other wells, no cells were inoculated, and only 90 μL of culture medium was added; (4). The plate was incubated in an incubator at 37° C., 5% CO2, and 100% relative humidity overnight.
(1) Formulation of 10× drug solution: A sterile round bottom 96-well plate was used, and the concentration of mother solutions of WX007, WX008, WX009, WX010, WX011 and WX012 was 10 mM. 5 μL of compound was added to the first well with 5 μL of 1640 medium, and mixed well to obtain a concentration of 5 mM. 5 μL of compound from the first well was added to the third well containing 45 μL of 1640 medium and mixed well to obtain a concentration of 500 μM. 5 μL of compound from the third well was added to the fourth well containing 45 μL of 1640 medium and mixed well to obtain a concentration of 50 μM. 20 μL of compound from the fourth well was added to the fifth well containing 180 μL of 1640 medium and mixed well to obtain 5 μM mother solution. Another sterile round bottom 96-well plate was used, and 60 μL of 5 μM compound was added to the first well. 30 μL of 5 μM compound was added to the second well with 60 μL of 1640 medium, and so forth. Compounds were serially diluted 3-fold to obtain a total of 9 concentrations. To the blank control was added an equal volume of DMSO in the same dilution way.
(2) Formulation of drug solution with the final concentration: 10 μL of the 10× drug solution as prepared above was added to 90 μL of culture medium in triplicate. To the control group was added an equal volume of DMSO solution, and the cell plate was flicked, so that the solution was mixed well. To the blank group was added 10 μL of 1640 medium. The plate was gently taped, so that the solution was mixed well. The plate was placed back in 37° C., 5% CO2 incubator and incubated for 4 days.
(1) Formulation of the drug solution: A sterile round-bottom 96-well plate was used, and the stock concentration of each compound was 10 mM. 2 μL of compound in 18 μL of DMSO was added to the first well and the mixture was mixed well to obtain a concentration of 1 mM; 10 μL of compound from the first well was added to the third well containing 90 μL of 1640 medium and the mixture was mixed well to obtain a concentration of 100 μM;
(2) For WX058, WX059, WX060 and WX042, 12 μL of solution from the third well obtained above was added to the fourth well containing 108 μL of 1640 medium and the mixture was mixed well to obtain a drug with 10 μM maximum concentration.
(3) Another new sterile round bottom 96-well plate was used, and 60 μL of each drug with the maximum concentration in step (2) was placed in the first well. 60 μL of solution from the first well was added to the second well with 60 μL 1640 medium, and so forth. Compounds were serially diluted 2-fold to obtain a total of 9 concentrations.
(4) For the blank control group, an equal volume of DMSO was added in the same dilution way.
(5) 10 μL of the solution with gradient drug concentrations prepared as above was added to 90 μL of culture medium in triplicate. For the control group, an equal volume of DMSO solution was added. The cell plate was gently tapped, so that the solution was mixed well. […]

[2] = biological target: T1, Recombinant human-derived ALK (Homo sapiens, UniProt Q9UM73); assay: Inhibitory activity of compounds against ALK kinase (time-resolved fluorescence resonance energy transfer); format: biochemical; conditions: 30 μM ATP, 50 nM ULight-poly GT peptide
T1 construct: BAG10812.1; 1058-1620 (terminal) amino acids; GST (N); made in house
T1 sequence (Q9UM73 1058-1620): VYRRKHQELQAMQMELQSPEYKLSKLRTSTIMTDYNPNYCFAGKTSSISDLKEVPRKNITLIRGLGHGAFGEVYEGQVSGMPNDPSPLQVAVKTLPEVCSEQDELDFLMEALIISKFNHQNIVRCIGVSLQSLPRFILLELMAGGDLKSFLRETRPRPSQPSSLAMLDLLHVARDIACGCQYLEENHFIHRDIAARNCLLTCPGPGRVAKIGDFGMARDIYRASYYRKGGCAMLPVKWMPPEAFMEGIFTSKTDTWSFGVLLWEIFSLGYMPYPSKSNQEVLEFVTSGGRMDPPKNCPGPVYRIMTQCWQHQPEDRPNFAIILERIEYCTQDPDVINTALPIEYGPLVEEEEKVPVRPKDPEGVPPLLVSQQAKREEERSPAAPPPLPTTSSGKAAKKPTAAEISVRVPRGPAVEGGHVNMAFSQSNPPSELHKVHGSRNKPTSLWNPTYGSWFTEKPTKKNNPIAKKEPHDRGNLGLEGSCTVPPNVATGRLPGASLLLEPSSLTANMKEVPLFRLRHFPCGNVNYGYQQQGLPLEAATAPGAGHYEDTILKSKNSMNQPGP
Description: The inhibitory activity of the compounds on ALK kinase was detected by time-resolved fluorescence resonance energy transfer method, that is, the ratio of fluorescence signals at 665 nm/615 nm was used to represent the activity of the enzyme.
Assay buffer solution: 50 mM 2-[4-(2-hydroxyethyl)-1-piperazinyl]ethanesulfonic acid buffer solution (HEPES) (pH 7.5), 10 mM MgCl2, 1 mM EDTA 0.01%, polyoxyethylene lauryl ether (Brij 35), 2 mM dithiothreitol (DTT).
Enzyme: Recombinant human-derived ALK (gene accession number: BAG10812.1; 1058-1620 (terminal) amino acids) was expressed with a N-terminal GST fusion protein (90 kDa) using a baculovirus expression system.
Enzyme substrate: 50 nM ULight-poly GT polypeptide.
Detection: europium-labeled anti-phosphotyrosine (PT66) antibody.
1. Compounds dissolved in 100% DMSO were added to 384-well plates by acoustic technique; 2. Recombinant human-derived ALK enzyme and enzyme substrate (50 nM ULight-poly GT peptide) or zymolyte (30 μM ATP) were dissolved in freshly prepared assay buffer; 3. The above ALK enzyme and enzyme substrate in the buffer solution were transferred to reaction wells; 4. Then, the zymolyte in the buffer solution was added to the above reaction wells to initiate the reaction; 5. The plate was incubated at room temperature for 1 hour; 6. The detection mixture (PT66 antibody and EDTA) was added to terminate the reaction, and the mixture was incubated at room temperature for 60 minutes; 7. Then, the plate was read using a microplate reader to obtain the ratio of fluorescence signals at 665 nm/615 nm.
Data analysis: Emission ratio (665 nm/615 nm) in the original data was involved in the calculation of the inhibition rate. The concentration and inhibition rate were analyzed using XLfit software 205 mode (4 Parameters Logistic Model) to obtain IC50 value and curve.

[3] = tested on: human lung cancer cell NCI-H2228; assay: Anti-proliferative effect in human lung cancer cell NCI-H2228 (CellTiter-Glo); format: cell-based; conditions: NCI-H2228, 72 h, cell proliferation, cultured for 3 days
Description: In this assay, the inhibitory effect of assay compounds on cell proliferation was assayed in human lung cancer cell NCI-H2228.
as §1, §2
(1). Cells were stained with trypan blue and viable cells were counted; (2). The cell concentration was adjusted to an appropriate concentration;
(3). 90 μL of cell suspension was added to each well of the culture plate as shown in the table above, and cell-free culture medium was added to the blank control well; (4). The plate was incubated in an incubator at 37° C., 5% CO2, and 100% relative humidity overnight.
Preparation of a mother solution storage plate with 400 times the starting compound concentration: the compounds were diluted serially with DMSO from the highest concentration to the lowest concentration. The plate was prepared freshly every time it was used.
(1). 78 μL of cell culture medium was added to a 96-well plate with a V-shaped bottom. […]
(1). […] The culture plate was left at room temperature for 10 minutes to stabilize the luminescence signal; (9). The luminescent signal was detected on a 2104 EnVision plate reader. […]

[4] = tested on: human lung cancer NCI-H2228 cells subcutaneous xenograft tumor; assay: In vivo pharmacodynamic study in subcutaneous xenograft tumor NOD SCID mouse model of human lung cancer NCI-H2228 cells; set-up: species or system NOD SCID mice; conditions: 50 mg/kg subcutaneous injection once a day
Description: Human lung cancer cell NCI-H2228 (ATCC® CRL-5935™) was cultured in vitro in an adherent monolayer in RPMI 1640 medium supplemented with 10% fetal bovine serum, 100 U/mL penicillin and 100 μg/mL streptomycin in an incubator at 37° C. and 5% CO2. Cells were passaged by routine digestion with trypsin-EDTA twice a week. When the cell saturation was 80%-90% and the number met the requirement, the cells are collected, counted, and inoculated.
NOD SCID mice, female, 6-8 weeks old, weighing 18-22 grams.
0.2 mL (10×10^6 cells) of NCI-H2228 cells (with matrigel, v/v 1:1) were subcutaneously inoculated into the right back of each mouse. The administration by group was started when the average tumor volume reached 171 mm^3. One administration cycle comprised seven days, with administration once a day. The assay compounds were administered by subcutaneous injection for a total of four cycles. The subcutaneous injection doses of the assay compounds WX001 and WX002 were both 50 mg/kg. Tumor diameter was measured twice a week with a vernier caliper, and tumor volume was measured in cubic millimeters and calculated by the following formula: V=0.5a×b^2, where a and b are the long and short diameters of the tumor, respectively. The tumor-inhibitory efficacy of the assay compounds was evaluated by using TGI (%). TGI (%) reflects a tumor growth inhibition rate. TGI (%)=[1−(Average tumor volume at the end of administration of a treatment group−Average tumor volume at the beginning of administration of the treatment group)/(Average tumor volume at the end of treatment of a vehicle control group−Average tumor volume at the beginning of treatment of the vehicle control group)]×100%.

Which IC50 [1] does the source give for `Cc1sc2c(c1C)C(c1ccc(Cl)cc1)=N[C@@H](CC(=O)NCCOCCOc1ccc3c(ccc4occ(C5CCC(=O)NC5=O)c43)c1)c1nnc(C)n1-2` (some centres unmarked) [WX011] here?
Its IC50 is 0.0738 µM.

For `Cc1cc(Nc2ncc(Cl)c(Nc3ccccc3S(=O)(=O)C(C)C)n2)c(OC(C)C)cc1C1CCN(CC(=O)NCc2ccc3c(ccc4occ(C5CCC(=O)NC5=O)c43)c2)CC1` (centres unmarked) [WX002 hydrochloride], which IC50 [2] is on record?
Its IC50 is 15.6 nM.

What about the IC50 [3] of the same molecule?
The IC50 was 0.16 µM.

What about the “Tumor volume (Day 1)” value ([4]; Day 1) of the same molecule?
Its value is 172 ± 11 mm^3.

And the “TGI (Day 28)” value ([4]; Day 28)?
Its value is 100.38%.

And the “Tumor volume (Day 28)” value ([4]; Day 28)?
The value was 169 ± 30 mm^3.

With `Cc1sc2c(c1C)C(c1ccc(Cl)cc1)=N[C@@H](CC(=O)NCCOc1ccc3c(ccc4occ(C5CCC(=O)NC5=O)c43)c1)c1nnc(C)n1-2` (some centres unmarked) [WX007] as the molecule, how does the IC50 [1] read?
The IC50 was 0.202 µM.

How did the IC50 [2] turn out when `Cc1cc(Nc2ncc(Cl)c(Nc3ccccc3S(=O)(=O)C(C)C)n2)c(OC(C)C)cc1C1CCN(C(=O)COc2ccc3occ(C4CCC(=O)NC4=O)c3c2)CC1` (centres unmarked) [WX003] was run?
The IC50 was 33.8 nM.

How did the IC50 [2] turn out when `Cc1cc(Nc2ncc(Cl)c(Nc3ccccc3S(=O)(=O)C(C)C)n2)c(OC(C)C)cc1C1CCN(CCOc2ccc3occ(C4CCC(=O)NC4=O)c3c2)CC1` (centres unmarked) [WX006] was run?
Its IC50 is 12.2 nM.

How did the IC50 [1] turn out when `Cc1sc2c(c1C)C(c1ccc(Cl)cc1)=N[C@@H](CC(=O)NCCCOc1ccc3occ(C4CCC(=O)NC4=O)c3c1)c1nnc(C)n1-2` (some centres unmarked) [WX058] was run?
The IC50 was 0.0113 µM.

Which IC50 [1] does the source give for `Cc1sc2c(c1C)C(c1ccc(Cl)cc1)=N[C@@H](CC(=O)NCCOCCOCCOc1ccc3c(ccc4occ(C5CCC(=O)NC5=O)c43)c1)c1nnc(C)n1-2` (some centres unmarked) [WX008] here?
Its IC50 is 0.0225 µM.

With `Cc1sc2c(c1C)C(c1ccc(Cl)cc1)=N[C@@H](CC(=O)NCCCCOc1ccc3occ(C4CCC(=O)NC4=O)c3c1)c1nnc(C)n1-2` (some centres unmarked) [WX060] as the molecule, how does the IC50 [1] read?
Its IC50 is 0.017 µM.

How did the IC50 [1] turn out when `Cc1sc2c(c1C)C(c1ccc(Cl)cc1)=N[C@@H](CC(=O)NCCNc1ccc3c(ccc4occ(C5CCC(=O)NC5=O)c43)c1)c1nnc(C)n1-2` (some centres unmarked) [WX010] was run?
Its IC50 is 0.0613 µM.

With `Cc1sc2c(c1C)C(c1ccc(Cl)cc1)=N[C@@H](CC(=O)NCCOc1ccc3occ(C4CCC(=O)NC4=O)c3c1)c1nnc(C)n1-2` (some centres unmarked) [WX059] as the molecule, how does the IC50 [1] read?
Its IC50 is 0.0166 µM.

For `Cc1sc2c(c1C)C(c1ccc(Cl)cc1)=N[C@@H](CC(=O)NCCCCCCNc1ccc3c(ccc4occ(C5CCC(=O)NC5=O)c43)c1)c1nnc(C)n1-2` (some centres unmarked) [WX009], which IC50 [1] is on record?
Its IC50 is 0.0517 µM.

Which IC50 [1] does the source give for `Cc1sc2c(c1C)C(c1ccc(Cl)cc1)=N[C@@H](CC(=O)NCCCNC(=O)COc1ccc3occ(C4CCC(=O)NC4=O)c3c1)c1nnc(C)n1-2` (some centres unmarked) [WX042] here?
The IC50 was 0.0353 µM.

How did the IC50 [1] turn out when `Cc1sc2c(c1C)C(c1ccc(Cl)cc1)=N[C@@H](CC(=O)NCCCCCCOc1ccc3c(ccc4occ(C5CCC(=O)NC5=O)c43)c1)c1nnc(C)n1-2` (some centres unmarked) [WX012] was run?
The IC50 was 0.0706 µM.

From US20230158152A1, “PROTEOLYSIS REGULATOR AND METHOD FOR USING SAME” (MEDSHINE DISCOVERY INC., priority 2020, published 2023)
